Drawing on patent US4581354A, “3-arylcarbonyl- and 3-cycloalkylcarbonyl-1-aminoalkyl-1H-indoles, compositions and use” (Sterling Drug Inc., priority 1985, dated 1986), this text covers ED50 and inhibition in vivo for 8 molecules.

The subject of experiment [1] is acetylcholine-induced abdominal constriction. Put plainly: animal or person. It is filed as in vivo, mice. The conditions noted are these: Mus musculus, read-out: Ach ED50.
In a further experiment the test system is bradykinin. Description: anti-bradykinin test (BRDK). Type of experiment: in vivo. The following applies: for ED50: po. The source says:
(§1) The test procedures used to determine the analgesic activities of the compounds have been described in detail in the prior art and are as follows: The acetylcholine-induced abdominal constriction test, which is a primary analgesic screening test designed to measure the ability of a test agent to suppress acetylcholine-induced abdominal constriction in mice, described by Collier et al., Brit. J. Pharmacol. Chemotherap. 32, 295 (1968); a modification of the anti-bradykinin test, which is also a primary analgesic screening procedure, described by Berkowitz et al., J. Pharmacol. Exptl. Therap. 177, 500-508 (1971), Blane et al., J. Pharm. Pharmacol. 19, 367-373 (1967), Botha et al., Eur. J. Pharmacol. 6, 312-321 (1969) and Deffenu et al., J. Pharm. Pharmacol. 18, 135 (1966); and the rat paw flexion test, described by Kuzuna et al., Chem. Pharm. Bull., 23, 1184-1191 (1975), Winter et al., J. Pharm. Exptl. Therap., 211, 678-685 (1979) and Capetola et al., J. Pharm. Exptl. Therap. 214, 16-23 (1980).
(§2) Unless noted otherwise, all data were obtained on oral administration and are expressed either as the ED50 or as the percent inhibition at a given dose level (thus 30/100 or 30% inhibition at […].)
(§3) In some instances, the compounds were retested two or more times, and ED50 values were calculated for each series of repeat tests. In such instances, each of the ED50 values so-obtained is given in a series of values, thus 6, 28, 30, 43 in the case of the species of Example 1AW in the acetylcholine-induced abdominal constriction test.

For a further experiment, the system named is rat paw flexion. Put plainly: rat paw flexion test (P.F.). Type of experiment: in vivo. The following applies: for ED50: oral; for inhibition in vivo at 100 mg/kg: 100 mg./kg. oral; for inhibition in vivo at 30 mg/kg: 30 mg./kg. oral.
Excerpt: as §1, §2, §3

[2] abbreviates: po, read-out: P.F. percent inhibition.

The structures appear in SMILES notation. Like-named read-outs stand apart in the source and are kept apart here.

Consider `Cc1ccc(C(=O)c2c(C)n(CCN3CCOCC3)c3ccccc23)cc1` [Example 1AE], for which the figures for the ED50 (in experiment [1] (po); with rat paw flexion) were 29 mg/kg and 66.2 mg/kg, respectively. Also, in the experiment on bradykinin (300 mg./kg. oral, read-out: BRDK percent inhibition), the inhibition in vivo at 300 mg/kg is 20%.
In the case of `Cc1c(C(=O)c2ccccc2)c2ccccc2n1CCN1CCOCC1` [Example 1AO], the median effective dose (ED50) – broadly, the midpoint of the dose-response relation – came out at 28 mg/kg in experiment [1] (po) and 111 mg/kg in the experiment on bradykinin. In addition, in the experiment with rat paw flexion (setting [2]), the inhibition in vivo at 100 mg/kg turned out to be 75%.
For the molecule `CC(CN1CCOCC1)n1cc(C(=O)c2ccccc2)c2ccccc21` (stereo not drawn) [Example 1AY], the ED50 in experiment [1] (iv) was determined as 8.5 mg/kg. The molecule also had an ED50 in the experiment with bradykinin of 141 mg/kg. In the experiment on rat paw flexion (setting [2]), the inhibition in vivo at 30 mg/kg was determined as 0% and the inhibition in vivo at 100 mg/kg was found to be 0%. Besides, in the experiment on rat paw flexion (po, 300 mg./kg. oral, read-out: P.F. percent inhibition), the inhibition in vivo at 300 mg/kg is 20%.
In the case of `CSc1ccc(C(=O)c2c(C)n(CCN3CCOCC3)c3ccccc23)cc1` [Example 1D], the ED50 amounted to 5.1 mg/kg in experiment [1] (iv), 49 mg/kg in experiment [1] (sc) and 64 mg/kg with rat paw flexion. Also, the inhibition in vivo at 100 mg/kg in the experiment with bradykinin (100 mg./kg. oral, read-out: BRDK percent inhibition) is 0%.
Consider `Cc1c(C(=O)c2ccc([S+](C)[O-])cc2)c2ccccc2n1CCN1CCOCC1` (stereo not drawn) [Example 1F], for which the median effective dose (ED50) in experiment [1] (iv) worked out at 13 mg/kg; in experiment [1] (po) it was 20 mg/kg. For the same molecule, in the experiment on bradykinin (200 mg./kg. oral, read-out: BRDK percent inhibition), the inhibition in vivo at 200 mg/kg came out at 0%. Further, in the experiment on rat paw flexion (setting [2]), the inhibition in vivo at 100 mg/kg amounted to 88%.
Turning to `COc1ccc(C(=O)c2c(C)n(C(C)CN3CCOCC3)c3ccccc23)cc1` (stereo not drawn) [Example 2I], the 50% effective dose (ED50) in experiment [1] (iv) stood at 2.6 mg/kg; in experiment [1] (po), 28 mg/kg; in experiment [1] (sc), 18 mg/kg; with bradykinin, 132 mg/kg. The inhibition in vivo at 100 mg/kg in the experiment with rat paw flexion (setting [2]) was 62%.
`Cc1c(C(=O)c2ccc(N)cc2)c2ccccc2n1CCN1CCOCC1` [Example 4B, 2-methyl-3-(4-aminobenzoyl)-1-[2-(4-morpholinyl)ethyl]-1H-indole]: the 50% effective dose (ED50) turned out to be 6 mg/kg in experiment [1] (iv), 24 mg/kg in experiment [1] (po), 38 mg/kg with bradykinin and 27.6 mg/kg in the experiment on rat paw flexion.
With `CC(=O)Nc1cccc(C(=O)c2c(C)n(CCN3CCOCC3)c3ccccc23)c1` [Example 5B], the 50% effective dose (ED50) in experiment [1] (po) came to 25 mg/kg. This molecule yielded an ED50 in the experiment with bradykinin of 61 mg/kg. In addition, the inhibition in vivo at 10 mg/kg in the experiment on rat paw flexion (po, 10 mg./kg. oral, read-out: P.F. percent inhibition) amounted to 0%. In the experiment with rat paw flexion (setting [2]), the inhibition in vivo at 30 mg/kg turned out to be 12% and the inhibition in vivo at 100 mg/kg is 12%.
